Measurements as given in publication PMC9334755 (Cancer Biology & Medicine, 2021).
Like-named read-outs stand apart in the source and are kept apart here.

How the values were obtained:
BMX = BMX (Homo sapiens, UniProt P51813); assay: HTRF kinase assay, BMX
Experimental: (§7) Homogeneous time-resolved fluorescence (HTRF) assays were performed with a HTRF® KinEASE™-TK kit (Trevigen).

EPHA3 = EPHA3 (Homo sapiens, UniProt P29320); assay: Protein kinase panel at 1 µM, EPHA3; format: biochemical
[1] = mouse
BLK = BLK (Homo sapiens, UniProt P51451); assay: Protein kinase panel at 1 µM, BLK; format: biochemical
CYP2C9 = CYP2C9 (Homo sapiens, UniProt P11712); format: in vitro ADME
Description: (§1) Cancer Biol Med Vol 19, No 7 July 2022 3
(§2) Table S8 Inhibition of CYP isozymes by SY-1530
(§3) Table S9 Preclinical safety of SY-1530
(§4) Group Single-dose toxicity Multiple-dose toxicity
(§5) Animal Rat Beagle dog Rat Beagle dog
(§6) (1 picture or pasted object on this page, not shown here)

CYP2C8 = CYP2C8 (Homo sapiens, UniProt P10632); format: in vitro ADME
Sequence of CYP2C8 (P10632 whole entry): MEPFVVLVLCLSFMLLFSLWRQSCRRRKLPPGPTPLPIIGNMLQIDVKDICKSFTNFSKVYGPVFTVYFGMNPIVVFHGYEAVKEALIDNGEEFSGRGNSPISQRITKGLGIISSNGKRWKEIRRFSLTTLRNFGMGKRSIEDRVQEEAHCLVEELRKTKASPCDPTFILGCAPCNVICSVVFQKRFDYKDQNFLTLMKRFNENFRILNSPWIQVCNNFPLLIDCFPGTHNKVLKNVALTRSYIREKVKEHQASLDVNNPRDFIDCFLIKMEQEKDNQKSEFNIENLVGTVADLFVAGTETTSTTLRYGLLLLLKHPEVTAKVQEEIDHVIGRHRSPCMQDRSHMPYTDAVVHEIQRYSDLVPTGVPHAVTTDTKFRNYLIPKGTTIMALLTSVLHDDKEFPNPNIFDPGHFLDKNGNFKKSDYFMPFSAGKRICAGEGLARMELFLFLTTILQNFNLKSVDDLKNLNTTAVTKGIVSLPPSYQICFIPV
Description: as §1, §2, §3, §4, §5, §6

CYP1A2 = CYP1A2 (Homo sapiens, UniProt P05177); format: in vitro ADME
Description: as §1, §2, §3, §4, §5, §6

ITK = ITK (Homo sapiens, UniProt Q08881); assay: HTRF assay of ITK activity
Sequence of ITK (Q08881 whole entry): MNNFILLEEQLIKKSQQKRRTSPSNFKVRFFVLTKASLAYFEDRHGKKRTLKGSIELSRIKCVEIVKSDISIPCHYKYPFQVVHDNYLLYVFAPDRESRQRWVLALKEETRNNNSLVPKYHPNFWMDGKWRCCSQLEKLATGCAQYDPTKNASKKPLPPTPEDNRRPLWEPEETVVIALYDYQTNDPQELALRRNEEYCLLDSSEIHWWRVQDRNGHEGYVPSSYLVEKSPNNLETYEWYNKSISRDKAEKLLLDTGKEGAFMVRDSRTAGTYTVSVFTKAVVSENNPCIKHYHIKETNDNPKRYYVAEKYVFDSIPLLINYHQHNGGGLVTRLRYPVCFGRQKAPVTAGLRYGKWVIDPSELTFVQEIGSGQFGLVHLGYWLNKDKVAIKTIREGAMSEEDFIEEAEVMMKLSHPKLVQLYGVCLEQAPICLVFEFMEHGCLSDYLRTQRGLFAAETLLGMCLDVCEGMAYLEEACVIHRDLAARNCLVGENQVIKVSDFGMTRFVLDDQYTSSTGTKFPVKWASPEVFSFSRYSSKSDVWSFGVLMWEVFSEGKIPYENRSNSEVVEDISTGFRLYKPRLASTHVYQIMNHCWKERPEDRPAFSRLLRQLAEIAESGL
Experimental: as §7

Pfeiffer cells = assay: Apoptosis detection (Annexin V / 7-AAD) in Pfeiffer cells; format: cell-based; settings: 24 h, Annexin V and 7-AAD
Experimental: Apoptosis assays were performed with an Annexin V-PE Apoptosis Detection Kit I (BD Biosciences). Briefly, 5 × 10^5 Pfeiffer cells were seeded on 6-well plates and treated with BTK inhibitors at the indicated concentrations. After 24 h or 48 h, cells were collected and stained with PE Annexin V and 7-AAD according to the manufacturer’s instructions. FACS analysis was performed with a Guava flow cytometer.
Figure 4 SY-1530 blocks B-cell receptor signaling and induces apoptosis. (A–D) Human B and T cells were purified and incubated with different concentrations of BTK inhibitors for 1 h. B cells were stimulated with 50 μg/mL anti-human IgM F(ab′)2, and T cells were stimulated with 50 μg/mL anti-CD3/CD28 beads overnight directly or after washout of BTK inhibitors before stimulation. The percentage of CD69 positive cells was analyzed by flow cytometry. Data are shown as the mean ± SEM (n = 3). Statistical analysis was performed with Student’s t-test (*P < 0.05, **P < 0.01, ***P < 0.001). (E) Pfeiffer cells and Romas cells were preincubated with different concentrations of compounds for 1 h, washed with PBS, and then stimulated with anti-IgM/anti-IgG (10 μg/mL) for 10 min. Cells were lysed and analyzed by Western blot with the indicated antibodies. […] The cells were stained with both PE-Annexin and 7-AAD and analyzed by flow cytometry. […] Cells were lysed and analyzed with specific antibodies.

Caco-2 = settings: human
Description: protein kinases Beagle dog PK
Kinase Inhibition (%) Kinase Inhibition (%) IV Oral
Species Plasma protein binding (%)
Tcells, and B-cell lymphoma
Compound Caco-2 permeability assay
as §6

TMD8 = assay: Cell viability assay (CellTiter-Blue), TMD8; format: cell-based, human; settings: TMD8 cells; read-out: IC50 (nM), growth of TMD8
Experimental: Cells were seeded on 96-well plates (9,000 cells/well), cultured at 37 °C in 5% CO2 overnight, and incubated with different concentrations of compounds for 3 or 7 days. Then the cells were stained with CellTiter-Blue® reagent (Promega) for 4 h at 37 °C. The fluorescence signals were detected with a FlexStation 3, and the IC50 values of each compound were determined with GraFit software (Version 6.0).

FGR = FGR (Homo sapiens, UniProt P09769); assay: Protein kinase panel at 1 µM, FGR; format: biochemical
Sequence of FGR (P09769 whole entry): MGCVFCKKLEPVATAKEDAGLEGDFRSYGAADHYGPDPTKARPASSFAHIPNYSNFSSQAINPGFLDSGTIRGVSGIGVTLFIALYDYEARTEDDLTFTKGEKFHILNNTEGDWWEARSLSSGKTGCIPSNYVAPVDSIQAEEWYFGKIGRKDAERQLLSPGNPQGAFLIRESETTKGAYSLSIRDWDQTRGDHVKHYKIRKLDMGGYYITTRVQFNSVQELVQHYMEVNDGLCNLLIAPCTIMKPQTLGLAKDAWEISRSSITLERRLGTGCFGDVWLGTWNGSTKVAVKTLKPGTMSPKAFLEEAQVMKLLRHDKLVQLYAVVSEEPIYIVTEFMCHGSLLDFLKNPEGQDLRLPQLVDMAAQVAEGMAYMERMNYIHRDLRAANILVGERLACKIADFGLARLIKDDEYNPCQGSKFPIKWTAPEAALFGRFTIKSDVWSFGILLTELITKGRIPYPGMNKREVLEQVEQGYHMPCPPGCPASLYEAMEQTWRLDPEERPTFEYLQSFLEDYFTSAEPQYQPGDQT

FLT3 = FLT3 (Homo sapiens, UniProt P36888); assay: Protein kinase panel at 1 µM, FLT3; format: biochemical
Sequence of FLT3 (P36888 27-993): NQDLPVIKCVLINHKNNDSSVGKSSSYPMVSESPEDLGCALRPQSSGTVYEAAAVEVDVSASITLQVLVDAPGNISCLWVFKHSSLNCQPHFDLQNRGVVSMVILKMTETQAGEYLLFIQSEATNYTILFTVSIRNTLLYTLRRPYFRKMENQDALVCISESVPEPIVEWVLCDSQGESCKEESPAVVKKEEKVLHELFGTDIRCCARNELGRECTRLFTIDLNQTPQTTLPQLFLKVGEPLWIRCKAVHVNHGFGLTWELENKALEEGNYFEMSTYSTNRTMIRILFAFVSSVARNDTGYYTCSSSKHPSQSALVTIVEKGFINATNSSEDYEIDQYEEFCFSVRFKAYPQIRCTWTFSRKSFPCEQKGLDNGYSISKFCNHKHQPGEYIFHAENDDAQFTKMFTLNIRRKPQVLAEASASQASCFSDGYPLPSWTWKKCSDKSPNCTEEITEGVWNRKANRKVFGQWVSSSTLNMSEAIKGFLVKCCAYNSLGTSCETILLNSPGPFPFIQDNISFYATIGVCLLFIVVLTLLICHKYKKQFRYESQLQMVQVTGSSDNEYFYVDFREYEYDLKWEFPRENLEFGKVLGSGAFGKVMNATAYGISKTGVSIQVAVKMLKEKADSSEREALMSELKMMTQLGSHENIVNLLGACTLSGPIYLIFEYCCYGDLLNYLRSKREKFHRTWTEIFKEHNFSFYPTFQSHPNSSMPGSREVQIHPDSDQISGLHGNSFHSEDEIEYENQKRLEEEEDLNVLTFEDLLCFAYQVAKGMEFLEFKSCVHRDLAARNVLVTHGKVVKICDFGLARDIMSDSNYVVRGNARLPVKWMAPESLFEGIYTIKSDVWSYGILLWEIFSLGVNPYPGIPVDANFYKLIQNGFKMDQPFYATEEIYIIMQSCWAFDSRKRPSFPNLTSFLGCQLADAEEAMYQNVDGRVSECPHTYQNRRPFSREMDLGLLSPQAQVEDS

Sequence of BMX (P51813 whole entry): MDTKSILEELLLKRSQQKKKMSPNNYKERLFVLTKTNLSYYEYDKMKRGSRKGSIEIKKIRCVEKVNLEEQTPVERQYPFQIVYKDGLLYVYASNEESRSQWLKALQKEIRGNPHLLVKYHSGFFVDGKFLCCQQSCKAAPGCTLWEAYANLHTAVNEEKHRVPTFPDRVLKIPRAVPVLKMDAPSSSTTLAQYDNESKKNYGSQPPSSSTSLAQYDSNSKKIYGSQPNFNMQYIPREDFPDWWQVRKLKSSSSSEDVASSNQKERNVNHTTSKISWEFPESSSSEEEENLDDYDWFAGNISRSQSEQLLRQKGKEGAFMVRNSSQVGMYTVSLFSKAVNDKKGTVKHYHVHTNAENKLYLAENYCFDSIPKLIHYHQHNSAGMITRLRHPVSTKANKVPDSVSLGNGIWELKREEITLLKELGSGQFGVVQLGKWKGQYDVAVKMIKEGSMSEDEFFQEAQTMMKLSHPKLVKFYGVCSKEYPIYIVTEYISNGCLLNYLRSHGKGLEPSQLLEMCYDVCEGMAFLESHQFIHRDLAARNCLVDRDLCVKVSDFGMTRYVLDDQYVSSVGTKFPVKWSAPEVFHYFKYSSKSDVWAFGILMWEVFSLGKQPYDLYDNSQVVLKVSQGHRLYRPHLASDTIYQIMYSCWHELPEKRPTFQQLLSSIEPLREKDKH
Sequence of EPHA3 (P29320 21-983, species assumed): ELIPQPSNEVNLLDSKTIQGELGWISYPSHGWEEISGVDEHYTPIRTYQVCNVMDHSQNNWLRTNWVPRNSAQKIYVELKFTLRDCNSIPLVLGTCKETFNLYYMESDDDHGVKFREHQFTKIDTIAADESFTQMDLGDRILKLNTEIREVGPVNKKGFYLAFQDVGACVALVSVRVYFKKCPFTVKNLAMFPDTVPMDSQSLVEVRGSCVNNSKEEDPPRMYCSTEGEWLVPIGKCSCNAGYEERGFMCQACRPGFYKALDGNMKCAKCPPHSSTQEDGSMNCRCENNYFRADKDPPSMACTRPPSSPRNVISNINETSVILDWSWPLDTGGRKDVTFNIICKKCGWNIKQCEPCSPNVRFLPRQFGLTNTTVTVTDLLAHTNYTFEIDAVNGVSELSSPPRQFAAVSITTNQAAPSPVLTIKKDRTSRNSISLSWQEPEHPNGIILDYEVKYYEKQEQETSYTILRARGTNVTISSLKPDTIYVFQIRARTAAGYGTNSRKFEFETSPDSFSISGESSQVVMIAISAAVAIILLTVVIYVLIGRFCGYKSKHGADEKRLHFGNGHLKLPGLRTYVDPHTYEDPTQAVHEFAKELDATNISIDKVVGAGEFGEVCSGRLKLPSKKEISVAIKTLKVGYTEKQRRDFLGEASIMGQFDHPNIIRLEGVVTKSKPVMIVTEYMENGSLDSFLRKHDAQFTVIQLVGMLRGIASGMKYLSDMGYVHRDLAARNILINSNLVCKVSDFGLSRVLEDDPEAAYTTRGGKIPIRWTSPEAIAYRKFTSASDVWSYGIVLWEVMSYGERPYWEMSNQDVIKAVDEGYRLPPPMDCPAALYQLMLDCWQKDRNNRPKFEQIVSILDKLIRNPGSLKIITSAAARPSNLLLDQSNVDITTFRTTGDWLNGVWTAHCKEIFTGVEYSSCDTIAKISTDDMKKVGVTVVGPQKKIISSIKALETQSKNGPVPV
Sequence of BLK (P51451 whole entry): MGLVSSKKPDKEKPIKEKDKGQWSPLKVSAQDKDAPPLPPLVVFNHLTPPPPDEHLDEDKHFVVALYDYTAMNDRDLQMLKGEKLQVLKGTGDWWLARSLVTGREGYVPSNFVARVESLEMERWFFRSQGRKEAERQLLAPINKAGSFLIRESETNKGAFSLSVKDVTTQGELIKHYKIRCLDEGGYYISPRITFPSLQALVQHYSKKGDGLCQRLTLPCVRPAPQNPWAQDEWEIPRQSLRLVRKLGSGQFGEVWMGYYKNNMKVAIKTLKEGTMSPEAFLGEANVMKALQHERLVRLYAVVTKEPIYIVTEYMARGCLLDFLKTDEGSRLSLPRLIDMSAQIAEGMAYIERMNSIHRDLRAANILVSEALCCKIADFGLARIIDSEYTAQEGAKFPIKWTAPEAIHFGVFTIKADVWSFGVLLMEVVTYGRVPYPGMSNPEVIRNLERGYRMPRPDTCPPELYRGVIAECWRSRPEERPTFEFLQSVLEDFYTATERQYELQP

SMILES: COC/C=C/C(=O)N1CC[C@@H](n2nc(-c3ccc(Oc4ccccc4)cc3)c(C(N)=O)c2N)C1 [SY-1530]
- Ratio, BMX (BMX; IC50 SY-1530 over literature IC50 of ibrutinib): 9.4
- IC50 (BMX; read-out: IC50 (nM), BMX, HTRF): 7.51 nM
- Inhibition (%), EPHA3 (EPHA3): −2%
- Plasma protein binding (%) [1]: 94.8%
- Inhibition (%), BLK (BLK): 53%
- IC50 (CYP2C9): > 25 µM
- IC50 (CYP2C8): > 25 µM
- IC50 (CYP1A2): > 25 µM
- Ratio, ITK (ITK; IC50 SY-1530 over IC50 ibrutinib): > 13
- IC50 (ITK; read-out: IC50 toward ITK, HTRF): > 1000 nM
- Apoptosis in Pfeiffer cells (Pfeiffer cells): induced early and late apoptosis
- Ratio = Papp BL→AP/Papp AP→BL (Caco-2; Caco-2, 0.1 μM): 2.46
- Ratio = Papp BL→AP/Papp AP→BL (Caco-2; Caco-2, 1 μM): 2.58
- Ratio = Papp BL→AP/Papp AP→BL (Caco-2; Caco-2, 10 μM): 2.92
- IC50 (TMD8): 15.6 nM
- Inhibition (%), FGR (FGR): 96%
- Inhibition (%), FLT3 (FLT3): 68%
